Source: publication PMC8842277, “Highly Antiproliferative Latonduine and Indolo[2,3-c]quinoline Derivatives: Complex Formation with Copper(II) Markedly Changes the Kinase Inhibitory Profile” (Journal of Medicinal Chemistry, 2022)

What was measured:
AMPK (hum) = experiment: Kinase panel screen; format: biochemical, human; conditions: 10 µM compound
Excerpt: (§1) Figure 7 (see also Table S4) summarizes the results of this assay as a histogram plotting the percentage of the remaining enzyme activity (x-axis) as a function of added lead compound (HL^8: blue trace, 8: red trace) for each of the 50 enzymes assayed (y-axis). […] Thus, the coordination to copper(II) completely changes the kinase inhibition profile of HL^8.
(§2) Figure 7 Screening of HL^8 and 8 against 50 enzymes: histogram with % remaining activity on the x-axis plotted against the compound identifier (blue trace: HL^8 and red trace: 8) and enzyme identifier on the […]. The screen was carried out at a compound concentration of 10 μM, an enzyme concentration of 50 nM, and an ATP concentration of 100 μM.
All kinase assays were carried out using Multidrop 384’s at room temperature in a total assay volume of 25.5 μL. To plates containing 0.5 μL of HL^8 and 8, DMSO control or acid blank […], 15 μL of an enzyme mix containing enzyme […], and excess peptide/protein substrate in buffer was added. Compounds were pre-incubated in the presence of the enzyme and peptide/protein substrate for 5 min before initiation of the reaction by addition of 10 μL of ATP (final concentration selected for each kinase at 5, 20, or 50 μM). […] The dry Unifilter plates were then sealed on the addition of MicroScint O and were counted in PerkinElmer Topcount scintillation counters.

PKA = PKA (Homo sapiens, UniProt P17612); experiment: Kinase panel screen and IC50; format: biochemical
Excerpt: as §1, §2
(§3) Both compounds were screened against the respective enzymes, and IC50 values were determined.
(§4) All kinase assays were carried out using Multidrop 384’s at room temperature in a total assay volume of 25.5 μL. To plates containing 0.5 μL of HL^8 and 8, DMSO control or acid blank […], 15 μL of an enzyme mix containing enzyme […], and excess peptide/protein substrate in buffer was added. Compounds were pre-incubated in the presence of the enzyme and peptide/protein substrate for 5 min before initiation of the reaction by addition of 10 μL of ATP (final concentration selected for each kinase at 5, 20, or 50 μM). Assays were carried out for 30 min at room temperature before termination by the addition of 5 μL of orthophosphoric acid. The assay plates were then harvested onto P81 Unifilter Plates by a PerkinElmer Harvester and air dried. The dry Unifilter plates were then sealed on the addition of MicroScint O and were counted in PerkinElmer Topcount scintillation counters.
(§5) IC50 values were determined by the International Centre for Kinase Profiling at the University of Dundee according to standard protocols published elsewhere.[109],[110]

PIM1 = PIM1 (Homo sapiens, UniProt P11309); experiment: Kinase panel screen and IC50; format: biochemical
Excerpt: as §1, §2, §3, §4, §5

CaMK-1 = CaMK-1 (Homo sapiens, UniProt Q14012); experiment: Kinase panel screen and IC50; format: biochemical
Excerpt: as §1, §2, §3, §4, §5

MSK1 = MSK1 (Homo sapiens, UniProt O75582); experiment: Kinase panel screen and IC50; format: biochemical
Excerpt: as §1, §2, §3, §4, §5

GSK3β = GSK3β (Homo sapiens, UniProt P49841); experiment: Kinase panel screen and IC50; format: biochemical
Excerpt: as §1, §2, §3, §4, §5

SGK-1 = SGK-1 (Homo sapiens, UniProt O00141); experiment: Kinase panel screen and IC50; format: biochemical
Excerpt: as §1, §2, §3, §4, §5

PAK4 = PAK4 (Homo sapiens, UniProt O96013); experiment: Kinase panel screen; format: biochemical; conditions: 10 µM compound
Excerpt: as §1, §2, §4

PKBa = PKBa (Homo sapiens, UniProt P31749); experiment: Kinase panel screen; format: biochemical; conditions: 10 µM compound
Excerpt: as §1, §2, §4

NEK6 = NEK6 (Homo sapiens, UniProt Q9HC98); experiment: Kinase panel screen; format: biochemical; conditions: 10 µM compound
Excerpt: as §1, §2, §4

Lck = Lck (Homo sapiens, UniProt P06239); experiment: Kinase panel screen; format: biochemical; conditions: 10 µM compound
Excerpt: as §1, §2, §4

MARK3 = MARK3 (Homo sapiens, UniProt P27448); experiment: Kinase panel screen; format: biochemical; conditions: 10 µM compound
Excerpt: as §1, §2, §4

MST2 = MST2 (Homo sapiens, UniProt Q13188); experiment: Kinase panel screen; format: biochemical; conditions: 10 µM compound
Excerpt: as §1, §2, §4

RIPK2 = RIPK2 (Homo sapiens, UniProt O43353); experiment: Kinase panel screen; format: biochemical; conditions: 10 µM compound
Excerpt: as §1, §2, §4

PRK2 = PRK2 (Homo sapiens, UniProt Q16513); experiment: Kinase panel screen; format: biochemical; conditions: 10 µM compound
Excerpt: as §1, §2, §4

CK2 = CK2 (Homo sapiens, UniProt P68400); experiment: Kinase panel screen; format: biochemical; conditions: 10 µM compound
Excerpt: as §1, §2, §4

IGF-1R = IGF-1R (Homo sapiens, UniProt P08069); experiment: Kinase panel screen; format: biochemical; conditions: 10 µM compound
Excerpt: as §1, §2, §4

BTK = BTK (Homo sapiens, UniProt Q06187); experiment: Kinase panel screen; format: biochemical; conditions: 10 µM compound
Excerpt: as §1, §2, §4

VEG-FR = VEG-FR (Homo sapiens, UniProt P17948); experiment: Kinase panel screen; format: biochemical; conditions: 10 µM compound
Excerpt: as §1, §2, §4

PLK1 = PLK1 (Homo sapiens, UniProt P53350); experiment: Kinase panel screen; format: biochemical; conditions: 10 µM compound
Excerpt: as §1, §2, §4

MLK3 = MLK3 (Homo sapiens, UniProt Q16584); experiment: Kinase panel screen; format: biochemical; conditions: 10 µM compound
Excerpt: as §1, §2, §4

EPH-A2 = EPH-A2 (Homo sapiens, UniProt P29317); experiment: Kinase panel screen; format: biochemical; conditions: 10 µM compound
Excerpt: as §1, §2, §4

Aurora B = Aurora B (Homo sapiens, UniProt Q96GD4); experiment: Kinase panel screen; format: biochemical; conditions: 10 µM compound
Excerpt: as §1, §2, §4

TBK1 = TBK1 (Homo sapiens, UniProt Q9UHD2); experiment: Kinase panel screen; format: biochemical; conditions: 10 µM compound
Excerpt: as §1, §2, §4

LKB1 = LKB1 (Homo sapiens, UniProt Q15831); experiment: Kinase panel screen; format: biochemical; conditions: 10 µM compound
Excerpt: as §1, §2, §4

DYRK1A = DYRK1A (Homo sapiens, UniProt Q13627); experiment: Kinase panel screen; format: biochemical; conditions: 10 µM compound
Excerpt: as §1, §2, §4

TAK1 = TAK1 (Homo sapiens, UniProt O43318); experiment: Kinase panel screen; format: biochemical; conditions: 10 µM compound
Excerpt: as §1, §2, §4

SYK = SYK (Homo sapiens, UniProt P43405); experiment: Kinase panel screen; format: biochemical; conditions: 10 µM compound
Excerpt: as §1, §2, §4

HER4 = HER4 (Homo sapiens, UniProt Q15303); experiment: Kinase panel screen; format: biochemical; conditions: 10 µM compound
Excerpt: as §1, §2, §4

PKD1 = PKD1 (Homo sapiens, UniProt Q15139); experiment: Kinase panel screen; format: biochemical; conditions: 10 µM compound
Excerpt: as §1, §2, §4

CHK2 = CHK2 (Homo sapiens, UniProt O96017); experiment: Kinase panel screen; format: biochemical; conditions: 10 µM compound
Excerpt: as §1, §2, §4

RSK1 = RSK1 (Homo sapiens, UniProt Q15418); experiment: Kinase panel screen; format: biochemical; conditions: 10 µM compound
Excerpt: as §1, §2, §4

MKK1 = MKK1 (Homo sapiens, UniProt Q02750); experiment: Kinase panel screen; format: biochemical; conditions: 10 µM compound
Excerpt: as §1, §2, §4

PIM1, sequence (P11309 whole entry): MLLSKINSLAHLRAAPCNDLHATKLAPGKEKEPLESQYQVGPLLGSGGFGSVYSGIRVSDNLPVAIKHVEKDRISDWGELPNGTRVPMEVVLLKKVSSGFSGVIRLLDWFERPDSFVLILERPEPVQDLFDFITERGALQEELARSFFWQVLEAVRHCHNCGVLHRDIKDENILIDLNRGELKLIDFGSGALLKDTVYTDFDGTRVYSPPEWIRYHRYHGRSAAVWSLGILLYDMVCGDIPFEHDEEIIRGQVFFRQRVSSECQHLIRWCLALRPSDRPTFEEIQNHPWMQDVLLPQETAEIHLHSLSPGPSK
SGK-1, sequence (O00141 whole entry): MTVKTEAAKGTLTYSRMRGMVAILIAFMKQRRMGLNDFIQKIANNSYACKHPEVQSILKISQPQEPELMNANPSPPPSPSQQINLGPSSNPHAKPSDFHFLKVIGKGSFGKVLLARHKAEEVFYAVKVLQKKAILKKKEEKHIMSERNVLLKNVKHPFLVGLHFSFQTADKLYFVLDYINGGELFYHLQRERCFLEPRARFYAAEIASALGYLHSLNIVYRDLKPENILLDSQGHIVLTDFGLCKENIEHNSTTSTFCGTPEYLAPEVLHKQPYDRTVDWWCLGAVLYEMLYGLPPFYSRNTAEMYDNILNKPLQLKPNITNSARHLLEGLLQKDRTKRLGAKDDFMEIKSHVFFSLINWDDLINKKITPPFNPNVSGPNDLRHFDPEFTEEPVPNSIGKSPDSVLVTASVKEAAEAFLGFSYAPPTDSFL
GSK3β, sequence (P49841 whole entry): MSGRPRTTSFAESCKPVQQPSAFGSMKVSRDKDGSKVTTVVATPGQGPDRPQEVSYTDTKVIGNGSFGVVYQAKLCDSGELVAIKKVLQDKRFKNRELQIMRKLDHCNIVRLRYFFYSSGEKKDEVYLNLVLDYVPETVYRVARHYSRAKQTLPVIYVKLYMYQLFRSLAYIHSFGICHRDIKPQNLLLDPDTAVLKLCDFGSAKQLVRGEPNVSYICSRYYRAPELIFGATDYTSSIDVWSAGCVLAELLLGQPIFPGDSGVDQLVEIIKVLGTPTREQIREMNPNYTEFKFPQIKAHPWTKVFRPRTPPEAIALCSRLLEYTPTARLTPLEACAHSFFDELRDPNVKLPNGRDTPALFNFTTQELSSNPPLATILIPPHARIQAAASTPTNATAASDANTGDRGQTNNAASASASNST
MSK1, sequence (O75582 whole entry): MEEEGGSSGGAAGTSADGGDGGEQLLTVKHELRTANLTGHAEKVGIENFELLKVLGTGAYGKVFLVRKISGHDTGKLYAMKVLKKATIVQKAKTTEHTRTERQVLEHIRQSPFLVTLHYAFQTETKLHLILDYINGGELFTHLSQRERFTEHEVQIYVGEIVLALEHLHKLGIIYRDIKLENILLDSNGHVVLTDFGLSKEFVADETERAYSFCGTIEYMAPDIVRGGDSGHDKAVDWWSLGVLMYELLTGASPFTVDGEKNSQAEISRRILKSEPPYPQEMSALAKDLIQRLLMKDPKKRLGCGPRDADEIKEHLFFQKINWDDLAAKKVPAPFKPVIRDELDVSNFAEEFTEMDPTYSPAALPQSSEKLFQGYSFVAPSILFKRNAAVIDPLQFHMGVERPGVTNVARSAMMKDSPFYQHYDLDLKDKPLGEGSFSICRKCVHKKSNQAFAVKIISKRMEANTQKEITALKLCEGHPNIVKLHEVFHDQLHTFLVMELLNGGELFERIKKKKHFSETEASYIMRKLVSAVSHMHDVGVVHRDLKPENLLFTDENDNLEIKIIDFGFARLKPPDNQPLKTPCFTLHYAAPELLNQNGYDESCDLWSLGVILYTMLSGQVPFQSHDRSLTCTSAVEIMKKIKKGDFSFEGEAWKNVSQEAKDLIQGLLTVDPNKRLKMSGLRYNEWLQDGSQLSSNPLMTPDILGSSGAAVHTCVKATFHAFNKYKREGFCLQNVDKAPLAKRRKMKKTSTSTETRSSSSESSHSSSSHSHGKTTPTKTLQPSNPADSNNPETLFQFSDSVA
MKK1, sequence (Q02750 whole entry): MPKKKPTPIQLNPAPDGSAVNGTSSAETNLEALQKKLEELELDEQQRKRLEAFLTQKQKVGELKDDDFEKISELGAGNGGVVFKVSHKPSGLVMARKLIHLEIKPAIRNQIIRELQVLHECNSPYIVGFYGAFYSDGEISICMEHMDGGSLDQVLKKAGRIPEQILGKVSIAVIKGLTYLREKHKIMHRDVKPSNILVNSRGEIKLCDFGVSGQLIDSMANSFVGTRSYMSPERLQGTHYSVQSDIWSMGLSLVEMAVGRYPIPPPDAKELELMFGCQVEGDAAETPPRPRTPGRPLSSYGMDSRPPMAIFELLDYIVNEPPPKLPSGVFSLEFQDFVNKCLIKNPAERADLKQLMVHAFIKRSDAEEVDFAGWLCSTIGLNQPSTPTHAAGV
RSK1, sequence (Q15418 whole entry): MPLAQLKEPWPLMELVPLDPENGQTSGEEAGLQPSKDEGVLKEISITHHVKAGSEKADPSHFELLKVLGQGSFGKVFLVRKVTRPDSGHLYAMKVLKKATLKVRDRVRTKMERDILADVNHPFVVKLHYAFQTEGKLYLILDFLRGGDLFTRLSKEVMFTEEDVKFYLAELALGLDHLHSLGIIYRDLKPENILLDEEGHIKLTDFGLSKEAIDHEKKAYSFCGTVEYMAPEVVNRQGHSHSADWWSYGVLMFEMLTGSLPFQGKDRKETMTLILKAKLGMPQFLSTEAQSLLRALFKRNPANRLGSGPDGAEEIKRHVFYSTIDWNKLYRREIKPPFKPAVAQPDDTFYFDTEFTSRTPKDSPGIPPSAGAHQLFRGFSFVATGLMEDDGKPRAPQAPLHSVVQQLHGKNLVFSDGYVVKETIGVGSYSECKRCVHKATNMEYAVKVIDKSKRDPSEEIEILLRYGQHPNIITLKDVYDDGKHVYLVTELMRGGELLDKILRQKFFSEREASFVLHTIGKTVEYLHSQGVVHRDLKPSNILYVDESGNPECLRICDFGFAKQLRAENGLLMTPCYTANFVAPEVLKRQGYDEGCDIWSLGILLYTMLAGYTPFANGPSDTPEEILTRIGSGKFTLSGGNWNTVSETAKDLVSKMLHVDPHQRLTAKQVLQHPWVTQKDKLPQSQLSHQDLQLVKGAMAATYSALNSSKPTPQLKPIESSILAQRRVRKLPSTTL
MLK3, sequence (Q16584 whole entry): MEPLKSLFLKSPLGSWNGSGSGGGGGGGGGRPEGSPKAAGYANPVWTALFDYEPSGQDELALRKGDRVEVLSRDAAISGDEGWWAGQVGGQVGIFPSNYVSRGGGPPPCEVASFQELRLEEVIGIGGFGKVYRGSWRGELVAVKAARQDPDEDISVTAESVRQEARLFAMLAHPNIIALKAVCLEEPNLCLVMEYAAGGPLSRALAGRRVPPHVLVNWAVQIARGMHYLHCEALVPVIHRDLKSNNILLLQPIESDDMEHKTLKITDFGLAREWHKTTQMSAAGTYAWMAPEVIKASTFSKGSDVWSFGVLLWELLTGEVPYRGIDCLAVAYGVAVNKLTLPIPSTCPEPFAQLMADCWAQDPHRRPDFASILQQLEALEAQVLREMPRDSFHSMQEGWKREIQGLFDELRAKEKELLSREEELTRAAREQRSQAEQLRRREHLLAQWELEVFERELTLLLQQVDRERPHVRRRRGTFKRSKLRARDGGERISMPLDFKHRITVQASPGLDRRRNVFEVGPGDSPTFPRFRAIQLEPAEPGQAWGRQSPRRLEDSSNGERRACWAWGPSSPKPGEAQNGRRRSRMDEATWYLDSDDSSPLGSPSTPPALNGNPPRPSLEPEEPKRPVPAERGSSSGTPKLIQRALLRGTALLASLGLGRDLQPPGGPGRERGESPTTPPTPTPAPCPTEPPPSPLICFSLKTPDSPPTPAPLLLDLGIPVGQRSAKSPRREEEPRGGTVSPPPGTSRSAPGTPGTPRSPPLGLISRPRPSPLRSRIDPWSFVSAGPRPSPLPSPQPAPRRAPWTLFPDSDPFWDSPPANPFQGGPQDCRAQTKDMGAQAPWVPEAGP
CK2, sequence (P68400 whole entry): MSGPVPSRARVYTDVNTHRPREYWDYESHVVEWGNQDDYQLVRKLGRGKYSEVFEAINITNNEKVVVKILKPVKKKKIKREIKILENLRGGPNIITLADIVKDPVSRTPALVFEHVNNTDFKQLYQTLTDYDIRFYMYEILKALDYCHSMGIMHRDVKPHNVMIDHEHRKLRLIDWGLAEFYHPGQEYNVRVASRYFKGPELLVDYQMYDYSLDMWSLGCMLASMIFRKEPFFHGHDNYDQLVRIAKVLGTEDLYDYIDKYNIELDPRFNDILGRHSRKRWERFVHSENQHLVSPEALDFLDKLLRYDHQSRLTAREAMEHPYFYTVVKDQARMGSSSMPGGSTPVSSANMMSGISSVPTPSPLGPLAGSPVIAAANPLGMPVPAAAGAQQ
PKBa, sequence (P31749 whole entry): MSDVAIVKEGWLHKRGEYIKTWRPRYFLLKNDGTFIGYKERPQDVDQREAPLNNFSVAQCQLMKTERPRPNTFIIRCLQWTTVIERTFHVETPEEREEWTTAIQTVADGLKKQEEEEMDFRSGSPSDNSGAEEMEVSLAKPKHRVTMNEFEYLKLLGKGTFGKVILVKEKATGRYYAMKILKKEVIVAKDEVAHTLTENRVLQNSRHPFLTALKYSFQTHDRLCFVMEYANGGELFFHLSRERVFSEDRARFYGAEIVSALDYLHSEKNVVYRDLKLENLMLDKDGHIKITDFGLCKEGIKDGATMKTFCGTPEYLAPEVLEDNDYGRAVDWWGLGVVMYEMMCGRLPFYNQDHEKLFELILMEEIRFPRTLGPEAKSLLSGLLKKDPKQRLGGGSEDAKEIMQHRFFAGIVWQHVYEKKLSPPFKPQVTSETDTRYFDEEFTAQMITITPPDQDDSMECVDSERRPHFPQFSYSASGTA

Structure (SMILES): CC(=NNc1nc2ccccc2c2c1[nH]c1ccc(Br)cc12)c1ccc(CN2CCOCC2)cn1.[Cl][Cu][Cl] [compound 8, CuCl2(HL^8)·H2O]
- % remaining activity (AMPK (hum)): 91%
- % remaining activity (PKA; PKA, 10 µM compound): 10%
- IC50 (PKA; read-out: IC50 against PKA): 6690 nM
- IC50 against PIM-1 (PIM1): did not register binding
- % remaining activity (PIM1; PIM1, 10 µM compound): 72%
- % remaining activity (CaMK-1; CaMK-1, 10 µM compound): 9%
- IC50 (CaMK-1; read-out: IC50 against CaMK-1): 750 nM
- % remaining activity (MSK1; MSK1, 10 µM compound): 17%
- IC50 (MSK1; read-out: IC50 against MSK1): 2970 nM
- % remaining activity (GSK3β; GSK3β, 10 µM compound): 32%
- IC50 (GSK3β; read-out: IC50 against GSK3β): 1640 nM
- % remaining activity (SGK-1; SGK-1, 10 µM compound): 5%
- IC50 (SGK-1; read-out: IC50 against SGK-1): 8450 nM
- % remaining activity (PAK4): 144%
- % remaining activity (PKBa): 82%
- % remaining activity (NEK6): 43%
- % remaining activity (Lck): 54%
- % remaining activity (MARK3): 112%
- % remaining activity (MST2): 82%
- % remaining activity (RIPK2): 95%
- % remaining activity (PRK2): 38%
- % remaining activity (CK2): 79%
- % remaining activity (IGF-1R): 60%
- % remaining activity (BTK): 61%
- % remaining activity (VEG-FR): 77%
- % remaining activity (PLK1): 90%
- % remaining activity (MLK3): 41%
- % remaining activity (EPH-A2): 132%
- % remaining activity (Aurora B): 78%
- % remaining activity (TBK1): 76%
- % remaining activity (LKB1): 107%
- % remaining activity (DYRK1A): 77%
- % remaining activity (TAK1): 120%
- % remaining activity (SYK): 39%
- % remaining activity (HER4): 71%
- % remaining activity (PKD1): 65%
- % remaining activity (CHK2): 119%
- % remaining activity (RSK1): 53%
- % remaining activity (MKK1): 94%
